Results on 1 molecule are retold here after PMC10671431, “New Derivatives of N-Hydroxybutanamide: Preparation, MMP Inhibition, Cytotoxicity, and Antitumor Activity” (International Journal of Molecular Sciences, 2023).

Molecules are shown by their SMILES.

The nature of data set [1]: Cytotoxicity, MTT test, statements on all cell lines studied. The following applies: human, African green monkey, 72 h of exposure, summary over cell lines, read-out: cytotoxicity IC50, cells in general. In kind it is cell-based. As for the experimental part:
(§1) Cell culture. A-172 (human glioblastoma cells), HepG2 (human hepatocellular carcinoma cells), M-HeLa (human cervical adenocarcinoma cells, M subclone), Vero (African green monkey kidney epithelial cells), and FetMSC (human embryonic mesenchymal stem cells) were purchased from the Russian Collection of Cell Cultures of Vertebrates (Institute of Cytology RAS, St. Petersburg, Russia). The U-251 MG cell line (human glioblastoma-astrocytoma) was purchased from the European Collection of Authenticated Cell Cultures (Salisbury, UK). All cells were grown at 37 °C in an atmosphere of 5% CO2. A-172 and Vero cells were cultured in DMEM medium (PanEco, Moscow, Russia). HepG2, HeLa, and U-251 MG cells were cultured in EMEM medium (PanEco). FetMSC cells were cultured in F12/DMEM medium (PanEco). All incubation media were supplemented with 10% fetal calf serum (BioWest, Nuaillé, France), 50 U/mL penicillin, and […] streptomycin (PanEco). Additionally, media for HeLa, HepG2, and U-251 MG cells were supplemented with 2 mM glutamine (PanEco) and 1% essential amino acids (PanEco), media for A-172 and Vero cells were supplemented with 4 mM glutamine, and the medium for FetMSC cells was supplemented with 3 mM glutamine. The medium for U-251 MG cells was additionally supplemented with 1 mM sodium pyruvate (PanEco).
(§2) Cytotoxicity studies. The cytotoxicity of the compounds was assessed using the MTT test. Cells were seeded into 96-well plates at varying concentrations of 5 × 10^4 cells/mL (A-172, Vero and HeLa), 7 × 10^4 cells/mL (HepG2 and U-251 MG), and 10 × 10^4 cells/mL (FetMSC). The studied compounds were added to the incubation medium 24 h after seeding at concentrations ranging from 7.8 μM to 500 μM. All compounds were dissolved in DMSO and diluted with the incubation medium to their final concentrations just before use. The incubation medium in wells was aspirated and replaced with medium containing the studied compounds. The final concentration of DMSO in all samples was 0.1%. Control samples were treated with 0.1% DMSO. After 72 h of exposure, 3-(4,5-dimethylthiazol-2-yl)-2,5-diphenyl-2H-tetrazolium bromide (MTT) (Dia-M, Moscow, Russia) was added to the incubation medium at a concentration of 0.5 mg/mL. The resulting MTT-formazan crystals were dissolved in DMSO. The optical density was measured at 570 nm with a background wavelength of 620 nm using a Spark 10M plate reader. IC50 values were determined using a median effect analysis from the dose–effect relationships.
(Formazan colour is commonly taken as a measure of viable cells.)

The subject of data set [2] is HepG2. Nature of the data set: Cytotoxicity, MTT test. The conditions noted are these: Homo sapiens, HepG2, 72 h of exposure. In kind it is cell-based, human. As for the experimental part: as §1, §2
Data set [3] relates to FetMSC. The experiment in a line: Cytotoxicity, MTT test. In kind it is cell-based, human. The procedure:
as §1, §2

The test system of data set [4] is HeLa. Nature of the data set: Cytotoxicity, MTT test. In kind it is cell-based, human. The following applies: Homo sapiens, HeLa, 72 h of exposure. As for the experimental part:
as §1, §2

For data set [5], the system named is A-172. Nature of the data set: Cytotoxicity, MTT test. In kind it is cell-based, human. The conditions noted are these: Homo sapiens, A 172, 72 h of exposure. As for the experimental part: as §1, §2
Data set [6] deals with Vero. Nature of the data set: Cytotoxicity, MTT test. The conditions noted are these: Chlorocebus sabaeus, Vero, 72 h of exposure. In kind it is cell-based, African green monkey. The procedure: as §1, §2
In data set [7] the test system is B16 melanoma. The experiment in a line: Antitumor activity in vivo, tumor growth. The conditions noted are these: BDF1 mice, i.p., CP 100 mg/kg days 2, 7, cPt 4 mg/kg days 2–9, 4 300 mg/kg days 2–9. Further details: species or system mouse. As for the experimental part:
Antitumor activity in vivo. The B16 mouse melanoma was used as a tumor model. The B16 melanoma tumor strain was induced in male BDF1 mice by subcutaneous inoculation of 0.2–0.5 mL of a suspension of tumor tissue in medium 199 at intervals of 12–16 days. For the experiments, BDF1 mice were inoculated with 0.3 mL of a suspension of tumor tissue diluted in a 0.9% NaCl solution at a ratio of 1:5 subcutaneously on the right side.
Compound 4 was dissolved in a 0.9% NaCl solution with 1% DMSO. […] Control animals were injected intraperitoneally with 1% DMSO in saline (0.9% NaCl) in the same volumes as the test compounds.
Tumor growth was monitored on days 0, 6, 8, 10, 13, 15, 17, and 20 by measuring the tumor size with a digital caliper. The mean tumor diameter was calculated using the formula:D = 3√a × b × c,(2) where a, b, and c are mutually perpendicular tumor diameters.

Usually IC50 stands for the concentration that inhibits the measured activity by half. Consider `O=C(CCC(=O)Nc1ccc(I)cc1)NO` [Compound 4, N^1-hydroxy-N^4-(4-iodophenyl)butanediamide], for which the IC50 at 72 h in data set [1] is greater than 100 µM. In data set [2], half-maximal inhibition (IC50) was put at 488 ± 23.9 µM. The IC50 in data set [3] (Homo sapiens, 72 h of exposure, MTT) is greater than 500 µM. Further, the “toxicity to FetMSC cells” value in data set [3] (only at the highest concentration) is given as “some toxicity”. Besides, the half-maximal inhibitory concentration (IC50) in data set [4] was found to be 297 ± 15.7 µM. In addition, the half-inhibitory concentration (IC50) in data set [5] came out at 418 ± 17.4 µM. Besides, the half-maximal inhibitory concentration (IC50) in data set [6] is greater than 500 µM. For the same molecule, in data set [7], the “Tumor Growth Inhibition, % Day 10” value is given as 34.5%; the “Tumor Growth Inhibition, % Day 13” value worked out at 61.5%; the “Tumor Growth Inhibition, % Day 15” value amounted to 50.4%; the “Tumor Growth Inhibition, % Day 17” value is 44.6%. Moreover, in data set [7], the “Tumor Growth Inhibition, % Day 20” value was found to be 42.3%.
